Test results reported in ChEMBL document CHEMBL5329166, “Discovery of imeglimin-inspired novel 1,3,5-triazine derivatives as antidiabetic agents in streptozotocin-induced diabetes in Wistar rats via inhibition of DPP-4” (RSC Med Chem, 2023).
pIC50: −log10 of the molar value. Active and inactive are the calls of the source. The calls are words filed in the database; no cut-off is given here.

Tests used:
Dipeptidyl peptidase 8 = Dipeptidyl peptidase 8 (Homo sapiens, UniProt Q6V1X1); assay: Inhibition of N-terminal GST/His-tagged human recombinant DPP-8 (1 to 898 residues) expressed in Sf9 insect cells using Ala-Pro-AMC dipeptide as substrate by fluorescence based assay
Chain of Dipeptidyl peptidase 8 (Q6V1X1 whole entry, the tested form may be a part): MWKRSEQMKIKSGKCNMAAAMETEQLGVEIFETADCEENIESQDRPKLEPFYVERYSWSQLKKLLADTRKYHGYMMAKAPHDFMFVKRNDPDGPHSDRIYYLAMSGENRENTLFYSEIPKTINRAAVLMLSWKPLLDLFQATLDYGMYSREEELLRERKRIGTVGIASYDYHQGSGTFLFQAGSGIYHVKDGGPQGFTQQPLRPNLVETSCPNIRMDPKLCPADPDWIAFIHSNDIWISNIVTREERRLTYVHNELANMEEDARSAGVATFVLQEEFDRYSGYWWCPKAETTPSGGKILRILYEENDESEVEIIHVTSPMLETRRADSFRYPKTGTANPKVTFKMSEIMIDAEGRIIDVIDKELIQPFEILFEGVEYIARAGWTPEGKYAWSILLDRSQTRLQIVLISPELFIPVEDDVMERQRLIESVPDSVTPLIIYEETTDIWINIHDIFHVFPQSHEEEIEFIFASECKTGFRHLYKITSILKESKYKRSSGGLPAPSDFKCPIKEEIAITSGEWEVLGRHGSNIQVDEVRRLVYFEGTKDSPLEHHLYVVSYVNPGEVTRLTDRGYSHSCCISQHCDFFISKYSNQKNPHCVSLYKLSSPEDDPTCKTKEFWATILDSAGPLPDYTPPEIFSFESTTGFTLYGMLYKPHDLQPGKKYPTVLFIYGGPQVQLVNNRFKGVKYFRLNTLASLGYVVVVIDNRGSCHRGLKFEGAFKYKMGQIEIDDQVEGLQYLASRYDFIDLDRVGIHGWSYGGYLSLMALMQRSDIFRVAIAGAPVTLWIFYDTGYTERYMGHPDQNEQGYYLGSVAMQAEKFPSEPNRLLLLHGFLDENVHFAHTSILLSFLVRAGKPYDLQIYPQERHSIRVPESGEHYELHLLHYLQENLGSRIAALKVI

[1] = Antioxidant activity assessed as DPPH scavenging activity incubated for 30 mins by absorbance based assay; type: functional; settings: dose 25-100 µg/ml
[2] = Antioxidant activity assessed as H2O2 scavenging activity incubated for 10 mins by absorbance based assay; type: functional; settings: dose 25-100 µg/ml
[3] = Antioxidant activity assessed as H2O2 scavenging activity at 73.43 ug/ml incubated for 10 mins by absorbance based assay; type: functional; settings: dose 73.43 µg/ml
[4] = Acute toxicity in rat assessed as change in animal skin and fur at 2000 mg/kg, po measured after 30 mins to 4 hrs; type: organism-based; settings: in vivo, time 0.5-4 hrs
[5] = Acute toxicity in rat assessed as change in eyes and mucous membranes at 2000 mg/kg, po measured after 30 mins to 4 hrs; type: organism-based; settings: in vivo, time 0.5-4 hrs
[6] = Acute toxicity in rat assessed as diarrhoea at 2000 mg/kg, po measured after 30 mins to 4 hrs; type: organism-based; settings: in vivo, time 0.5-4 hrs
[7] = Acute toxicity in po dosed rat measured after 30 mins to 4 hrs; type: organism-based; settings: in vivo, time 0.5-4 hrs
[8] = Acute toxicity in rat assessed as change in animal skin at 300 to 1000 mg/kg, po measured after 6 hrs; type: organism-based; settings: in vivo, dose 300-1000 mg/kg
[9] = Acute toxicity in rat assessed as change in animal fur at 300 to 1000 mg/kg, po measured after 6 hrs; type: organism-based; settings: in vivo, dose 300-1000 mg/kg
Rattus norvegicus [10] = assay: Antidiabetic activity in high fat diet/STZ induced diabetic Wistar rat model assessed as increase in body weight at 3 to 30 mg/kg, IG pretreated with STZ for 21 days followed by compound treatment once daily for 21 days; type: functional, organism-based; settings: dose 3-30 mg/kg, time 21.0 day
Rattus norvegicus [11] = assay: Antidiabetic activity in high fat diet/STZ induced diabetic Wistar rat model assessed as increase in fasting serum insulin at 3 to 30 mg/kg, IG pretreated with STZ for 21 days followed by compound treatment once daily for 21 days by chemiluminescence immunoassay; type: functional, organism-based; settings: dose 3-30 mg/kg, time 21.0 day
Rattus norvegicus [12] = assay: Antidiabetic activity in high fat diet/STZ induced diabetic Wistar rat model assessed as reduction in triglyceride level at 3 to 30 mg/kg, IG pretreated with STZ for 21 days followed by compound treatment once daily for 21 days by spectrophotometric analysis; type: functional, organism-based; settings: dose 3-30 mg/kg, time 21.0 day
Rattus norvegicus [13] = assay: Antidiabetic activity in high fat diet/STZ induced diabetic Wistar rat model assessed as reduction in LDL level at 3 to 30 mg/kg, IG pretreated with STZ for 21 days followed by compound treatment once daily for 21 days by spectrophotometric analysis; type: functional, organism-based; settings: dose 3-30 mg/kg, time 21.0 day
Rattus norvegicus [14] = assay: Antidiabetic activity in high fat diet/STZ induced diabetic Wistar rat model assessed as reduction in VLDL level at 3 to 30 mg/kg, IG pretreated with STZ for 21 days followed by compound treatment once daily for 21 days by spectrophotometric analysis; type: functional, organism-based; settings: dose 3-30 mg/kg, time 21.0 day
Rattus norvegicus [15] = assay: Antidiabetic activity in high fat diet/STZ induced diabetic Wistar rat model assessed as reduction in total cholesterol level at 3 to 30 mg/kg, IG pretreated with STZ for 21 days followed by compound treatment once daily for 21 days by spectrophotometric analysis; type: functional, organism-based; settings: dose 3-30 mg/kg, time 21.0 day
Rattus norvegicus [16] = assay: Antidiabetic activity in high fat diet/STZ induced diabetic Wistar rat model assessed as increase in HDL level at 3 to 30 mg/kg, IG pretreated with STZ for 21 days followed by compound treatment once daily for 21 days by spectrophotometric analysis; type: functional, organism-based; settings: dose 3-30 mg/kg, time 21.0 day
Rattus norvegicus [17] = assay: Antioxidant activity in IG dosed high fat diet/STZ induced diabetic Wistar rat model assessed as reversal of SOD reduction in kidney pretreated with STZ for 21 days followed by compound treatment once daily for 21 days by spectrophotometric analysis; type: functional, organism-based; settings: dose 3-30 mg/kg, time 21.0 day
Rattus norvegicus [18] = assay: Antioxidant activity in IG dosed high fat diet/STZ induced diabetic Wistar rat model assessed as reversal of SOD reduction in liver pretreated with STZ for 21 days followed by compound treatment once daily for 21 days by spectrophotometric analysis; type: functional, organism-based; settings: dose 3-30 mg/kg, time 21.0 day
Rattus norvegicus [19] = assay: Antioxidant activity in IG dosed high fat diet/STZ induced diabetic Wistar rat model assessed as reversal of CAT reduction in kidney pretreated with STZ for 21 days followed by compound treatment once daily for 21 days by spectrophotometric analysis; type: functional, organism-based; settings: dose 3-30 mg/kg, time 21.0 day
Rattus norvegicus [20] = assay: Antioxidant activity in high fat diet/STZ induced diabetic Wistar rat model assessed as repair of pancreatic epithelial cells with reduced inflammation at 30 mg/kg, IG pretreated with STZ for 21 days followed by compound treatment once daily for 21 days by H and E staining based microscopic analysis; type: functional, organism-based; settings: time 21.0 day
Rattus norvegicus [21] = assay: Antioxidant activity in high fat diet/STZ induced diabetic Wistar rat model assessed as repair of pancreatic epithelial cells with normal islets at 30 mg/kg, IG pretreated with STZ for 21 days followed by compound treatment once daily for 21 days by H and E staining based microscopic analysis; type: functional, organism-based; settings: time 21.0 day
Rattus norvegicus [22] = assay: Antioxidant activity in high fat diet/STZ induced diabetic Wistar rat model assessed as healing of hepatocyte central veins at 3 to 10 mg/kg, IG pretreated with STZ for 21 days followed by compound treatment once daily for 21 days by H and E staining based microscopic analysis; type: functional, organism-based; settings: dose 3-10 mg/kg, time 21.0 day
Rattus norvegicus [23] = assay: Antioxidant activity in high fat diet/STZ induced diabetic Wistar rat model assessed as hepatocyte cytoplasm recovery at 30 mg/kg, IG pretreated with STZ for 21 days followed by compound treatment once daily for 21 days by H and E staining based microscopic analysis; type: functional, organism-based; settings: time 21.0 day
Rattus norvegicus [24] = assay: Antioxidant activity in high fat diet/STZ induced diabetic Wistar rat model assessed as appearance of dilated central veins in hepatocytes at 30 mg/kg, IG pretreated with STZ for 21 days followed by compound treatment once daily for 21 days by H and E staining based microscopic analysis; type: functional, organism-based; settings: time 21.0 day
Rattus norvegicus [25] = assay: Antioxidant activity in high fat diet/STZ induced diabetic Wistar rat model assessed as appearance of round-oval nuclei in hepatocytes at 30 mg/kg, IG pretreated with STZ for 21 days followed by compound treatment once daily for 21 days by H and E staining based microscopic analysis; type: functional, organism-based; settings: time 21.0 day
Rattus norvegicus [26] = assay: Antioxidant activity in high fat diet/STZ induced diabetic Wistar rat model assessed as absence of feathery hepatocyte deterioration at 30 mg/kg, IG pretreated with STZ for 21 days followed by compound treatment once daily for 21 days by H and E staining based microscopic analysis; type: functional, organism-based; settings: time 21.0 day
Rattus norvegicus [27] = assay: Antioxidant activity in high fat diet/STZ induced diabetic Wistar rat model assessed as reduction in lymphocyte level in renal stroma at 3 to 30 mg/kg, IG pretreated with STZ for 21 days followed by compound treatment once daily for 21 days by H and E staining based microscopic analysis; type: functional, organism-based; settings: dose 3-30 mg/kg, time 21.0 day
Rattus norvegicus [28] = assay: Antioxidant activity in high fat diet/STZ induced diabetic Wistar rat model assessed as reduction in plasma cells in renal stroma at 3 to 3 to 30 mg/kg, IG pretreated with STZ for 21 days followed by compound treatment once daily for 21 days by H and E staining based microscopic analysis; type: functional, organism-based; settings: dose 3-30 mg/kg, time 21.0 day
Rattus norvegicus [29] = assay: Antioxidant activity in high fat diet/STZ induced diabetic Wistar rat model assessed as reduction in glomeruli infiltration in stroma at 3 to 30 mg/kg, IG pretreated with STZ for 21 days followed by compound treatment once daily for 21 days by H and E staining based microscopic analysis; type: functional, organism-based; settings: dose 3-30 mg/kg, time 21.0 day
Rattus norvegicus [30] = assay: Antioxidant activity in high fat diet/STZ induced diabetic Wistar rat model assessed as appearance of typical columnar cells in tubules at 30 mg/kg, IG pretreated with STZ for 21 days followed by compound treatment once daily for 21 days by H and E staining based microscopic analysis; type: functional, organism-based; settings: time 21.0 day

## Nc1nc(NC2=NC(c3ccccc3)=CC(c3cccc([N+](=O)[O-])c3)O2)nc(N2CCOCC2)n1 (stereo unspecified)
Dipeptidyl peptidase 8
  pIC50: < 6.40
[1]
  Activity: Dose-Dependent Effect
[2]
  Activity: Dose-Dependent Effect
[3]
  Activity: Active
[4]
  Activity: Non-Toxic
[5]
  Activity: Non-Toxic
[6]
  Activity: Non-Toxic
[7]
  LD50: 2000 mg/kg
[8]
  Activity: Non-Toxic
[9]
  Activity: Non-Toxic
Rattus norvegicus [10]
  Activity: Active
Rattus norvegicus [11]
  Activity: Active
Rattus norvegicus [12]
  Activity: Active
Rattus norvegicus [13]
  Activity: Active
Rattus norvegicus [14]
  Activity: Active
Rattus norvegicus [15]
  Activity: Active
Rattus norvegicus [16]
  Activity: Active
Rattus norvegicus [17]
  Activity: Dose-Dependent Effect
Rattus norvegicus [18]
  Activity: Dose-Dependent Effect
Rattus norvegicus [19]
  Activity: Dose-Dependent Effect
Rattus norvegicus [20]
  Activity: Active
Rattus norvegicus [21]
  Activity: Active
Rattus norvegicus [22]
  Activity: Active
Rattus norvegicus [23]
  Activity: Active
Rattus norvegicus [24]
  Activity: Active
Rattus norvegicus [25]
  Activity: Active
Rattus norvegicus [26]
  Activity: Active
Rattus norvegicus [27]
  Activity: Active
Rattus norvegicus [28]
  Activity: Active
Rattus norvegicus [29]
  Activity: Active
Rattus norvegicus [30]
  Activity: Active
